In patent US10980853B2, “Process for preparing a crassocephalum crepidioides extract, extract prepared thereby and use of the extract” (DEVELOPMENT CENTER FOR BIOTECHNOLOGY, priority 2015, dated 2021):
≈ marks a conversion by molar mass, not a printed value.

What was measured:
MKN45 cells [1] = assay: Inhibition of the growth of MKN45 cancer cells (MTS assay); type: cell-based
Description: (§1) MKN45 cells were incubated in RPMI-1640 medium (Sigma-Aldrich) containing 5% FBS (Gibco®). 6×10^3 cells were added to each well of a 96-well plate. Each well contained 180 μL of the above medium. The plate was incubated at 37° C. for 4 hours, and then 20 μL of various concentrations of each of the raw extract, Cr-E03 and dLGG were added to each well of the plate. Each concentration was tested with 3 replicates. After further incubation at 37° C. for 48 hours, the medium in the wells was removed, and 180 μL of 5% FBS medium containing 3-(4,5-dimethylthiazol-2-yl)-5-(3-carboxymethoxyphenyl)-2-(4-sulfophenyl)-2H-tetrazolium (MTS) were added to the wells. After reaction at 37° C. for 1 hour, the absorption values at 490 nm of the wells were measured by ELISA Reader (Model 680 Microplate Reader, Bio-Rad). IC25, IC50 and IC75 values of the raw extract, Cr-E03 and dLGG, respectively, were obtained by calculation using GraphPad Prism 5 software (GraphPad Software, Inc). IC25, IC50 and IC75 values are defined as the concentrations of the test sample which achieve 25%, 50% and 75%, respectively, of the maximal inhibition of the growth of MKN45 cells.

MKN45 cells [2] = assay: Combination with 5-FU or epirubicin in the inhibition of the growth of MKN45 cancer cells (combination index); type: cell-based; conditions: CI<1 synergism, CI=1 addition, CI>1 antagonism
Description: as §1
Combinations of different concentrations of each of the raw extract, Cr-E03 and dLGG with different concentrations of each of 5-fluorouracil (5-FU) and epirubicin were prepared. […]

CC/C=C\C/C=C\C/C=C\CCCCCCCC(=O)OC[C@H](CO[C@@H]1O[C@H](CO)[C@H](O)[C@H](O)[C@H]1O)OC(=O)CCCCCCC/C=C\C/C=C\C/C=C\CC [dLGG, 1,2-di-O-α-linolenoyl-3-O-β-galactopyranosyl-sn-glycerol]
IC25 (MKN45 cells [1]; 48 hours, concentration achieving 25% of maximal growth inhibition): 35.86 µg/mL (≈ 46.3 µM) | IC75 (MKN45 cells [1]; 48 hours, concentration achieving 75% of maximal growth inhibition): 61.96 µg/mL (≈ 79.9 µM) | IC50 (MKN45 cells [1]; Homo sapiens, MKN-45, 48 hours, concentration achieving 50% of maximal growth inhibition): 47.3 µg/mL (≈ 61 µM) | CI (combination index) (MKN45 cells [2]; combination with 5FU): 1.58 | CI (combination index) (MKN45 cells [2]; combination with Epi (epirubicin)): 1.58
